Measured values from the supplement of paper PMC10307832.

Key:
Test in all cases: relative viability (nuclei count vs DMSO), 5 days (fraction); higher = more cells survive
[1] = compound: CN(NC(=O)CC(=O)NN(C)C(=S)c1ccccc1)C(=S)c1ccccc1 [Elesclomol] + C[C@@H](Oc1cc(-c2cnn(C3CCNCC3)c2)cnc1N)c1c(Cl)ccc(F)c1Cl [Crizotinib] (partner 1 µM)
How it was run: (§1)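 Relative viability equals treated-well nuclei counts divided by vehicle-well nuclei counts. Counts came from 4× images of lung cancer cell lines grown in 1536-well plates for 5 days after pin-tool dosing on the day after seeding. Dosing used one drug alone or a fixed anchor-drug dose plus five library-drug doses (not always all listed) in √10 steps, and values are medians of duplicate plates.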

[2] = compound: CN(NC(=O)CC(=O)NN(C)C(=S)c1ccccc1)C(=S)c1ccccc1 [Elesclomol] + C[C@]1(O)C[C@@H](c2nc(-c3ccc4ccc(-c5ccccc5)nc4c3)c3c(N)nccn32)C1 [Linsitinib] (partner 1 µM)
How it was run: as §1

[3] = compound: CN(NC(=O)CC(=O)NN(C)C(=S)c1ccccc1)C(=S)c1ccccc1 [Elesclomol] + CCNC(=O)c1noc(-c2cc(C(C)C)c(O)cc2O)c1-c1ccc(CN2CCOCC2)cc1 [Luminespib] (partner 0.01 µM)
How it was run: as §1

[4] = compound: CN(NC(=O)CC(=O)NN(C)C(=S)c1ccccc1)C(=S)c1ccccc1 [Elesclomol] + O=C(CCCCCCC(=O)Nc1ccccc1)NO [Vorinostat] (partner 1 µM)
How it was run: as §1

[5] = compound: CN(NC(=O)CC(=O)NN(C)C(=S)c1ccccc1)C(=S)c1ccccc1 [Elesclomol]
How it was run: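 Nuclei counted with MetaXpress define viability as the ratio of treated to vehicle wells, given as a median across plates. The lung cancer cell lines were in 1536-well plates, pinned with five √10-spaced library-drug doses and imaged at 4× after 5 days and Hoechst staining. Plates passed with control CV below 25% and at least one doubling.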

201T
relative viability ([1]; first compound 0.003162 µM): 1.01 | relative viability ([1]; first compound 0.01 µM): 0.976 | relative viability ([1]; first compound 0.03162 µM): 0.978 | relative viability ([1]; first compound 0.1 µM): 0.99 | relative viability ([2]; first compound 0.003162 µM): 1.08 | relative viability ([2]; first compound 0.01 µM): 1.01 | relative viability ([2]; first compound 0.03162 µM): 1 | relative viability ([2]; first compound 0.1 µM): 1.01 | relative viability ([3]; first compound 0.003162 µM): 1.01 | relative viability ([3]; first compound 0.01 µM): 1.02 | relative viability ([3]; first compound 0.03162 µM): 0.978 | relative viability ([3]; first compound 0.1 µM): 0.562 | relative viability ([4]; first compound 0.003162 µM): 0.968 | relative viability ([4]; first compound 0.01 µM): 0.995 | relative viability ([4]; first compound 0.03162 µM): 0.869 | relative viability ([4]; first compound 0.1 µM): 0.68 | relative viability ([5]; 0.003162 µM): 0.953 | relative viability ([5]; 0.01 µM): 0.884 | relative viability ([5]; 0.03162 µM): 0.86 | relative viability ([5]; 0.1 µM): 0.61

A549
relative viability ([1]; first compound 0.003162 µM): 0.445 | relative viability ([1]; first compound 0.01 µM): 0.239 | relative viability ([1]; first compound 0.03162 µM): 0.0617 | relative viability ([1]; first compound 0.1 µM): 0.0458 | relative viability ([2]; first compound 0.003162 µM): 0.627 | relative viability ([2]; first compound 0.01 µM): 0.501 | relative viability ([2]; first compound 0.03162 µM): 0.378 | relative viability ([2]; first compound 0.1 µM): 0.097 | relative viability ([5]; 0.003162 µM): 0.912 | relative viability ([5]; 0.01 µM): 0.417 | relative viability ([5]; 0.03162 µM): 0.24 | relative viability ([5]; 0.1 µM): 0.0637

A-427
relative viability ([1]; first compound 0.003162 µM): 0.959 | relative viability ([1]; first compound 0.01 µM): 0.744 | relative viability ([1]; first compound 0.03162 µM): 0.895 | relative viability ([1]; first compound 0.1 µM): 0.277 | relative viability ([2]; first compound 0.003162 µM): 1.1 | relative viability ([2]; first compound 0.01 µM): 1.08 | relative viability ([2]; first compound 0.03162 µM): 1.14 | relative viability ([2]; first compound 0.1 µM): 0.578 | relative viability ([3]; first compound 0.003162 µM): 0.701 | relative viability ([3]; first compound 0.01 µM): 0.498 | relative viability ([3]; first compound 0.03162 µM): 0.27 | relative viability ([3]; first compound 0.1 µM): 0.117 | relative viability ([4]; first compound 0.003162 µM): 0.823 | relative viability ([4]; first compound 0.01 µM): 0.755 | relative viability ([4]; first compound 0.03162 µM): 0.192 | relative viability ([4]; first compound 0.1 µM): 0.15 | relative viability ([5]; 0.003162 µM): 0.963 | relative viability ([5]; 0.01 µM): 0.554 | relative viability ([5]; 0.03162 µM): 0.529 | relative viability ([5]; 0.1 µM): 0.18

ABC-1
relative viability ([1]; first compound 0.003162 µM): 0.195 | relative viability ([1]; first compound 0.01 µM): 0.136 | relative viability ([1]; first compound 0.03162 µM): 0.223 | relative viability ([1]; first compound 0.1 µM): 0.289 | relative viability ([2]; first compound 0.003162 µM): 0.267 | relative viability ([2]; first compound 0.01 µM): 0.207 | relative viability ([2]; first compound 0.03162 µM): 0.308 | relative viability ([2]; first compound 0.1 µM): 0.212 | relative viability ([3]; first compound 0.003162 µM): 0.254 | relative viability ([3]; first compound 0.01 µM): 0.206 | relative viability ([3]; first compound 0.03162 µM): 0.322 | relative viability ([3]; first compound 0.1 µM): 0.223 | relative viability ([4]; first compound 0.003162 µM): 0.426 | relative viability ([4]; first compound 0.01 µM): 0.249 | relative viability ([4]; first compound 0.03162 µM): 0.262 | relative viability ([4]; first compound 0.1 µM): 0.244 | relative viability ([5]; 0.003162 µM): 0.239 | relative viability ([5]; 0.01 µM): 0.252 | relative viability ([5]; 0.03162 µM): 0.201 | relative viability ([5]; 0.1 µM): 0.328

BEN
relative viability ([1]; first compound 0.003162 µM): 0.803 | relative viability ([1]; first compound 0.01 µM): 0.397 | relative viability ([1]; first compound 0.03162 µM): 0.304 | relative viability ([1]; first compound 0.1 µM): 0.214 | relative viability ([2]; first compound 0.003162 µM): 0.763 | relative viability ([2]; first compound 0.01 µM): 0.403 | relative viability ([2]; first compound 0.03162 µM): 0.322 | relative viability ([2]; first compound 0.1 µM): 0.239 | relative viability ([3]; first compound 0.003162 µM): 0.333 | relative viability ([3]; first compound 0.01 µM): 0.232 | relative viability ([3]; first compound 0.03162 µM): 0.158 | relative viability ([3]; first compound 0.1 µM): 0.237 | relative viability ([4]; first compound 0.003162 µM): 0.585 | relative viability ([4]; first compound 0.01 µM): 0.563 | relative viability ([4]; first compound 0.03162 µM): 0.448 | relative viability ([4]; first compound 0.1 µM): 0.385 | relative viability ([5]; 0.003162 µM): 0.937 | relative viability ([5]; 0.01 µM): 0.677 | relative viability ([5]; 0.03162 µM): 0.344 | relative viability ([5]; 0.1 µM): 0.307

CAL-12T
relative viability ([1]; first compound 0.003162 µM): 0.5 | relative viability ([1]; first compound 0.01 µM): 0.0867 | relative viability ([1]; first compound 0.03162 µM): 0.0556 | relative viability ([1]; first compound 0.1 µM): 0.0701 | relative viability ([2]; first compound 0.003162 µM): 0.942 | relative viability ([2]; first compound 0.01 µM): 0.321 | relative viability ([2]; first compound 0.03162 µM): 0.0785 | relative viability ([2]; first compound 0.1 µM): 0.0465 | relative viability ([3]; first compound 0.003162 µM): 0.328 | relative viability ([3]; first compound 0.01 µM): 0.115 | relative viability ([3]; first compound 0.03162 µM): 0.0856 | relative viability ([3]; first compound 0.1 µM): 0.0463 | relative viability ([4]; first compound 0.003162 µM): 0.66 | relative viability ([4]; first compound 0.01 µM): 0.245 | relative viability ([4]; first compound 0.03162 µM): 0.101 | relative viability ([4]; first compound 0.1 µM): 0.0721 | relative viability ([5]; 0.003162 µM): 0.939 | relative viability ([5]; 0.01 µM): 0.442 | relative viability ([5]; 0.03162 µM): 0.269 | relative viability ([5]; 0.1 µM): 0.0778

COR-L23
relative viability ([1]; first compound 0.003162 µM): 0.633 | relative viability ([1]; first compound 0.01 µM): 0.409 | relative viability ([1]; first compound 0.03162 µM): 0.341 | relative viability ([1]; first compound 0.1 µM): 0.124 | relative viability ([2]; first compound 0.003162 µM): 0.985 | relative viability ([2]; first compound 0.01 µM): 0.511 | relative viability ([2]; first compound 0.03162 µM): 0.32 | relative viability ([2]; first compound 0.1 µM): 0.244 | relative viability ([3]; first compound 0.003162 µM): 0.598 | relative viability ([3]; first compound 0.01 µM): 0.316 | relative viability ([3]; first compound 0.03162 µM): 0.206 | relative viability ([3]; first compound 0.1 µM): 0.0873 | relative viability ([4]; first compound 0.003162 µM): 0.378 | relative viability ([4]; first compound 0.01 µM): 0.156 | relative viability ([4]; first compound 0.03162 µM): 0.144 | relative viability ([4]; first compound 0.1 µM): 0.0678 | relative viability ([5]; 0.003162 µM): 0.969 | relative viability ([5]; 0.01 µM): 0.629 | relative viability ([5]; 0.03162 µM): 0.461 | relative viability ([5]; 0.1 µM): 0.256

COR-L 105
relative viability ([1]; first compound 0.003162 µM): 0.787 | relative viability ([1]; first compound 0.01 µM): 0.407 | relative viability ([1]; first compound 0.03162 µM): 0.288 | relative viability ([1]; first compound 0.1 µM): 0.207 | relative viability ([2]; first compound 0.003162 µM): 0.715 | relative viability ([2]; first compound 0.01 µM): 0.494 | relative viability ([2]; first compound 0.03162 µM): 0.371 | relative viability ([2]; first compound 0.1 µM): 0.202 | relative viability ([3]; first compound 0.003162 µM): 0.721 | relative viability ([3]; first compound 0.01 µM): 0.161 | relative viability ([3]; first compound 0.03162 µM): 0.307 | relative viability ([3]; first compound 0.1 µM): 0.164 | relative viability ([4]; first compound 0.003162 µM): 1 | relative viability ([4]; first compound 0.01 µM): 0.57 | relative viability ([4]; first compound 0.03162 µM): 0.361 | relative viability ([4]; first compound 0.1 µM): 0.336 | relative viability ([5]; 0.003162 µM): 0.85 | relative viability ([5]; 0.01 µM): 0.472 | relative viability ([5]; 0.03162 µM): 0.344 | relative viability ([5]; 0.1 µM): 0.221
